# According to PubChem BioAssay AID2060349 (Molecular Pharmacology Branch, DTP, NCI, 2025):
# Values joined by “and” are separate entries in the source; they are usually repeats but may differ in a detail not shown here. Identical values can stand only once.
# Tested on: 762968-020-R-J2-PDC spheroids viability
# Assay: Anticancer human tumor 762968-020-R-J2-PDC patient-derived colon carcinoma cell line growth inhibition [TAK]
# Details: spheroids with HUVEC and MSC; for viability, T/C: stronger effect = lower value
# Procedure, shortened: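 Spheroids of 60% malignant cells, 25% HUVEC and 15% hMSC were exposed to targeted agents combined with TAK-243 or ipatasertib. Concentrations started at or near clinical Cmax (10 microM if unknown) and descended in half-log steps.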
# [1] = curve of first compound, second compound 0.3 µM
# [2] = curve of first compound, second compound 0.949 µM
# [3] = curve of first compound, second compound 3 µM
# [4] = curve of first compound, second compound 9.49 µM
# [5] = curve of first compound, second compound 30 µM
# [6] = second compound 0.3 µM, first compound 0.00316 µM
# [7] = second compound 0.3 µM, first compound 0.01 µM
# [8] = second compound 0.3 µM, first compound 0.0316 µM
# [9] = second compound 0.3 µM, first compound 0.1 µM
# [10] = second compound 0.949 µM, first compound 0.00316 µM
# [11] = second compound 0.949 µM, first compound 0.01 µM
# [12] = second compound 0.949 µM, first compound 0.0316 µM
# [13] = second compound 0.949 µM, first compound 0.1 µM
# [14] = second compound 3 µM, first compound 0.00316 µM
# [15] = second compound 3 µM, first compound 0.01 µM
# [16] = second compound 3 µM, first compound 0.0316 µM
# [17] = second compound 3 µM, first compound 0.1 µM
# [18] = second compound 9.49 µM, first compound 0.00316 µM
# [19] = second compound 9.49 µM, first compound 0.01 µM
# [20] = second compound 9.49 µM, first compound 0.0316 µM
# [21] = second compound 9.49 µM, first compound 0.1 µM
# [22] = second compound 30 µM, first compound 0.00316 µM
# [23] = second compound 30 µM, first compound 0.01 µM
# [24] = second compound 30 µM, first compound 0.0316 µM
# [25] = second compound 30 µM, first compound 0.1 µM
# 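Also: spheroids exposed to drug for 7 days before readout.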
# 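For viability, T/C in this document: 100% = DMSO vehicle control wells.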
compound,measurement,setting,value
COc1c(OCCCN2CCOCC2)ccc2c3n(c(=NC(=O)c4cnc(N)nc4)nc12)CCN3 + CC(C)NCC(C(=O)N1CCN(c2ncnc3c2C(C)CC3O)CC1)c1ccc(Cl)cc1,IC50,[1],> 1000 nM
same,IC50,[2],> 1000 nM
same,IC50,[3],> 1000 nM
same,IC50,[4],> 1000 nM
same,IC50,[5],> 1000 nM
same,"viability, T/C",[6],95.4%
same,"viability, T/C",[7],101%
same,"viability, T/C",[8],89.3%
same,"viability, T/C",[9],85.1%
same,"viability, T/C","second compound 0.3 µM, first compound 0.316 µM",69.4%
same,"viability, T/C","second compound 0.3 µM, first compound 1 µM",66.8%
same,"viability, T/C",[10],101%
same,"viability, T/C",[11],96.7%
same,"viability, T/C",[12],94%
same,"viability, T/C",[13],84.7%
same,"viability, T/C","second compound 0.949 µM, first compound 0.316 µM",71.3%
same,"viability, T/C","second compound 0.949 µM, first compound 1 µM",70%
same,"viability, T/C",[14],105%
same,"viability, T/C",[15],100%
same,"viability, T/C",[16],98.3%
same,"viability, T/C",[17],89.9%
same,"viability, T/C","second compound 3 µM, first compound 0.316 µM",71.6%
same,"viability, T/C","second compound 3 µM, first compound 1 µM",60.2%
same,"viability, T/C",[18],102%
same,"viability, T/C",[19],94.7%
same,"viability, T/C",[20],88.6%
same,"viability, T/C",[21],85%
same,"viability, T/C","second compound 9.49 µM, first compound 0.316 µM",78%
same,"viability, T/C","second compound 9.49 µM, first compound 1 µM",67%
same,"viability, T/C",[22],91.8%
same,"viability, T/C",[23],81.3%
same,"viability, T/C",[24],79.4%
same,"viability, T/C",[25],69.5%
same,"viability, T/C","second compound 30 µM, first compound 0.316 µM",68.7%
same,"viability, T/C","second compound 30 µM, first compound 1 µM",59.1%
Cn1cnc2c(F)c(Nc3ccc(Br)cc3Cl)c(C(=O)NOCCO)cc21,"viability, T/C",compound 0.00949 µM,103% and 98.9%
same,"viability, T/C",compound 0.03 µM,93.8% and 91.6%
same,"viability, T/C",compound 0.0949 µM,89% and 82%
same,"viability, T/C",compound 0.3 µM,83.4% and 78.8%
same,"viability, T/C",compound 0.949 µM,67.7% and 64.5%
same,"viability, T/C",compound 3 µM,49.1% and 44.4%
same,IC50,curve of compound,2950 nM and 2240 nM
CC(C)CC(NC(=O)CNC(=O)c1cc(Cl)ccc1Cl)B1OC(=O)CC(CC(=O)O)(C(=O)O)O1 (stereo not given),"viability, T/C",compound 0.000316 µM,100% and 110%
same,"viability, T/C",compound 0.001 µM,109% and 98.2%
same,"viability, T/C",compound 0.00316 µM,104% and 108%
same,"viability, T/C",compound 0.01 µM,97.5% and 107%
same,"viability, T/C",compound 0.0316 µM,96.1% and 98%
same,"viability, T/C",compound 0.1 µM,78.6% and 80.6%
same,IC50,curve of compound,> 100 nM
CC(C)CC(NC(=O)CNC(=O)c1cc(Cl)ccc1Cl)B1OC(=O)CC(CC(=O)O)(C(=O)O)O1 (stereo not given) + CC(C)NCC(C(=O)N1CCN(c2ncnc3c2C(C)CC3O)CC1)c1ccc(Cl)cc1,IC50,[1],> 100 nM
same,IC50,[2],> 100 nM
same,IC50,[3],> 100 nM
same,IC50,[4],> 100 nM
same,IC50,[5],> 100 nM
same,"viability, T/C","second compound 0.3 µM, first compound 0.000316 µM",100%
same,"viability, T/C","second compound 0.3 µM, first compound 0.001 µM",105%
same,"viability, T/C",[6],93.4%
same,"viability, T/C",[7],108%
same,"viability, T/C",[8],99.4%
same,"viability, T/C",[9],79.5%
same,"viability, T/C","second compound 0.949 µM, first compound 0.000316 µM",94%
same,"viability, T/C","second compound 0.949 µM, first compound 0.001 µM",93.8%
same,"viability, T/C",[10],97.1%
same,"viability, T/C",[11],103%
same,"viability, T/C",[12],103%
same,"viability, T/C",[13],70.6%
same,"viability, T/C","second compound 3 µM, first compound 0.000316 µM",104%
same,"viability, T/C","second compound 3 µM, first compound 0.001 µM",102%
same,"viability, T/C",[14],98.2%
same,"viability, T/C",[15],105%
same,"viability, T/C",[16],95.2%
same,"viability, T/C",[17],73.4%
same,"viability, T/C","second compound 9.49 µM, first compound 0.000316 µM",94%
same,"viability, T/C","second compound 9.49 µM, first compound 0.001 µM",94.8%
same,"viability, T/C",[18],102%
same,"viability, T/C",[19],101%
same,"viability, T/C",[20],95.5%
same,"viability, T/C",[21],79.9%
same,"viability, T/C","second compound 30 µM, first compound 0.000316 µM",79%
same,"viability, T/C","second compound 30 µM, first compound 0.001 µM",89.4%
same,"viability, T/C",[22],89.4%
same,"viability, T/C",[23],88%
same,"viability, T/C",[24],84.5%
same,"viability, T/C",[25],72.7%
COc1c(OCCCN2CCOCC2)ccc2c3n(c(=NC(=O)c4cnc(N)nc4)nc12)CCN3,"viability, T/C",compound 0.00316 µM,101% and 102%
same,"viability, T/C",compound 0.01 µM,95.3% and 72%
same,"viability, T/C",compound 0.0316 µM,93% and 53.6%
same,"viability, T/C",compound 0.1 µM,80.6% and 42.5%
same,"viability, T/C",compound 0.316 µM,76.2% and 50.6%
same,"viability, T/C",compound 1 µM,73.9% and 52.4%
CC(C)NCC(C(=O)N1CCN(c2ncnc3c2C(C)CC3O)CC1)c1ccc(Cl)cc1 (stereo not given),"viability, T/C",compound 0.3 µM,103% [middle of 10 runs]
same,"viability, T/C",compound 0.949 µM,101% [middle of 10 runs]
same,"viability, T/C",compound 3 µM,104% [middle of 10 runs]
same,"viability, T/C",compound 9.49 µM,99.7% [middle of 10 runs]
same,IC50,"compound alone, run of 02/28/2020",17200 nM
same,IC50,"compound alone, run of 03/19/2020",> 30000 nM
CC(=O)Nc1cccc(-n2c(=O)n(C3CC3)c(=O)c3c(Nc4ccc(I)cc4F)n(C)c(=O)c(C)c32)c1,"viability, T/C",compound 94.9 pM,98.7% and 103%
same,"viability, T/C",compound 0.0003 µM,103% and 97.5%
same,"viability, T/C",compound 0.000949 µM,97.3%
same,"viability, T/C",compound 0.003 µM,86.9% and 80.5%
same,"viability, T/C",compound 0.00949 µM,60.6% and 73.2%
same,"viability, T/C",compound 0.03 µM,41.2% and 39%
same,IC50,curve of compound,17.8 nM and 20.4 nM
Cc1nc(NC(=O)N2CCCC2C(N)=O)sc1-c1ccnc(C(C)(C)C(F)(F)F)c1 (stereo not given),"viability, T/C",compound 0.0316 µM,113% and 104%
same,"viability, T/C",compound 0.1 µM,106% and 95.2%
same,"viability, T/C",compound 0.316 µM,106% and 93.9%
same,"viability, T/C",compound 1 µM,92.5% and 89.1%
same,"viability, T/C",compound 3.16 µM,91.7% and 87.4%
same,"viability, T/C",compound 10 µM,92.9% and 87.8%
same,IC50,curve of compound,> 10000 nM
